This note sets out measurements from US20240327382A1 (ALMAC DISCOVERY LIMITED, priority 2021, published 2024).

The experiment addresses T1, Full-length USP19 (Homo sapiens, UniProt O94966).
T1 construct: Full-length USP19 was purchased from Boston Biochem (E-576); purchased Boston Biochem E-576
T1 sequence (O94966 1-1318): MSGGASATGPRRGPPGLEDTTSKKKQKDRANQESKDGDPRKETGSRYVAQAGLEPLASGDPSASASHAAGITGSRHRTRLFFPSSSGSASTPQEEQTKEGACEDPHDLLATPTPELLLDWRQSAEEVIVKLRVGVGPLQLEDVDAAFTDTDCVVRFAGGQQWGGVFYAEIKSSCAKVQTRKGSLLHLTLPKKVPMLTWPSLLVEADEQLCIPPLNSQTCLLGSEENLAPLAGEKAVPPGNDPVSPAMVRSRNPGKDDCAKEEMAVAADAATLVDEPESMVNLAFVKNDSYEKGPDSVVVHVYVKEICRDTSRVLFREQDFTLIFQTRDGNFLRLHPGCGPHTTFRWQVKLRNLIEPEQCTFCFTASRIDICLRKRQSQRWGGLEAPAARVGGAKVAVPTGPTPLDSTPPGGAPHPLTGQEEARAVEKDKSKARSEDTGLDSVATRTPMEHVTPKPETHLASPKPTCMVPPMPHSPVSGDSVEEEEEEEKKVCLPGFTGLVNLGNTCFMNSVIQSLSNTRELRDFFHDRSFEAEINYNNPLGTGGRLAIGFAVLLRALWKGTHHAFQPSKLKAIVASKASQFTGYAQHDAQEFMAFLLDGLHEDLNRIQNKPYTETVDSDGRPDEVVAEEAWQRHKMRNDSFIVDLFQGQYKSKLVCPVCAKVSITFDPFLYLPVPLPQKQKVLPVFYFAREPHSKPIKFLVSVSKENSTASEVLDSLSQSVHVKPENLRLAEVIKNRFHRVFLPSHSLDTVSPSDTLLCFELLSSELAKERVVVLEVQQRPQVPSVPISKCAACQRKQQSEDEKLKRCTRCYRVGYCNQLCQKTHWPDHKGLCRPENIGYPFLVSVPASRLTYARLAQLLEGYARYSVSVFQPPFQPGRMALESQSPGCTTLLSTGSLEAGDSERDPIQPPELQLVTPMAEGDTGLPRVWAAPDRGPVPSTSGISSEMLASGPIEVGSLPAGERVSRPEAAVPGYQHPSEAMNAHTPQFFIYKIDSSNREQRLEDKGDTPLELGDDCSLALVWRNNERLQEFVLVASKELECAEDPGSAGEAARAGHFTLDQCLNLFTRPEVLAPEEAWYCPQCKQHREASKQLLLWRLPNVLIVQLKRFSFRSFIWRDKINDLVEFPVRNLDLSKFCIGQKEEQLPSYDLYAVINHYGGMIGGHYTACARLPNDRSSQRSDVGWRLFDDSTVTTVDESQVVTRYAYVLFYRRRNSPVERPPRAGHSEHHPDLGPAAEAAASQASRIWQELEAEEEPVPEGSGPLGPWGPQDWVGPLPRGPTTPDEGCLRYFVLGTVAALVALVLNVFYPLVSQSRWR
Description: USP19 fluorescence polarisation (FP) assay, Ubiquitin-Lys-TAMRA substrate. To be noted: average of at least two duplicate experiments. The format is biochemical. The procedure, abridged: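 Full-length human USP19 (added at 2.5 nM) was preincubated 30 min at RT with inhibitor (serial dilutions 200 μM to 2 μM) in 50 mM HEPES pH 7.4, 150 mM NaCl, 5 mM DTT, 0.05% BSA, 0.05% CHAPS. Ubiquitin-Lys-TAMRA isopeptide substrate (added at 500 nM) started the reaction, and FP (Ex 530/Em 575 nm) was read every 15 min over 90 min. IC50 came from non-linear regression of signal normalised to no-compound control, averaged over at least two duplicate experiments.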
Regarding `N[C@@H]1CCN(C(=O)N2CCC(Cn3cnc4cc(F)c(F)cc4c3=O)C3(CCCC3)C2)[C@H](c2ccccc2)C1` (stereo partly drawn) [Example 37, 3-((7-((2S,4R)-4-Amino-2-phenylpiperidine-1-carbonyl)-7-azaspiro[4.5]decan-10-yl)methyl)-6,7-difluoroquinazolin-4(3H)-one], the IC50 is under 10 nM. Turning to `CN[C@@H]1CCN(C(=O)N2CC[C@@H](Cn3ccc(-c4ccccc4)cc3=O)C3(CCCC3)C2)[C@H](c2cccc(F)c2)C1` [Example 64, 1-(((R)-7-((2S,4R)-2-(3-Fluorophenyl)-4-(methylamino)piperidine-1-carbonyl)-7-azaspiro[4.5]decan-10-yl)methyl)-4-phenylpyridin-2(1H)-one], the half-maximal inhibitory concentration (IC50) is under 10 nM. As for `N[C@@H]1CCN(C(=O)N2CCC(Cn3cnccc3=O)C3(CCCC3)C2)[C@H](c2ccccc2)C1` (stereo partly drawn) [Example 30, 3-((7-((2S,4R)-4-Amino-2-phenylpiperidine-1-carbonyl)-7-azaspiro[4.5]decan-10-yl)methyl) pyrimidin-4(3H)-one], the figure is 100 to 1000 nM; as for `N[C@@H]1CCN(C(=O)N2CCC(F)(Cn3cnc(-c4ccccc4)cc3=O)C3(CCCC3)C2)[C@H](c2ccccc2)C1` (stereo partly drawn) [Example 57, 3-((7-((2S,4R)-4-Amino-2-phenylpiperidine-1-carbonyl)-10-fluoro-7-azaspiro[4.5]decan-10-yl)methyl)-6-phenylpyrimidin-4(3H)-one], under 10 nM; as for `C[C@H]1CN(C(=O)N2CC[C@@H](Cn3cnc(-c4ccccc4)cc3=O)C3(CCCC3)C2)[C@H](c2cc(F)ccc2F)CO1` [Example 201, 3-(((R)-7-((2,5R)-5-(2,5-Difluorophenyl)-2-methylmorpholine-4-carbonyl)-7-azaspiro[4.5]decan-10-yl)methyl)-6-phenylpyrimidin-4(3H)-one], under 10 nM.

Take `CN[C@@H]1CCN(C(=O)N2CC[C@@H](Cn3cnc4ccccc4c3=O)C3(CCCC3)C2)[C@H](c2cc(F)ccc2F)C1` [Example 199, 3-(((R)-7-((2S,4R)-2-(2,5-Difluorophenyl)-4-(methylamino)piperidine-1-carbonyl)-7-azaspiro[4.5]decan-10-yl)methyl)quinazolin-4(3H)-one]: the 50% inhibitory concentration (IC50) was under 10 nM. For `CN[C@@H]1CCN(C(=O)N2CC[C@@H](Cn3cnc(-c4ccccc4OC)cc3=O)C3(CCCC3)C2)[C@H](c2ccc(F)cc2F)C1` [Example 117, 3-(((R)-7-((2S,4R)-2-(2,4-Difluorophenyl)-4-(methylamino)piperidine-1-carbonyl)-7-azaspiro[4.5]decan-10-yl)methyl)-6-(2-methoxyphenyl)pyrimidin-4(3H)-one] the value was under 10 nM; for `O=C(N1CC[C@@H](Cn2ccc(-c3ccccc3)cc2=O)C2(CCCC2)C1)N1CC[C@H](NC2CS(=O)(=O)C2)C[C@H]1c1ccccc1` [Example 51, 1-(((R)-7-((2S,4S)-4-((1,1-Dioxidothietan-3-yl)amino)-2-phenylpiperidine-1-carbonyl)-7-azaspiro[4.5]decan-10-yl)methyl)-4-phenylpyridin-2(1H)-one], 100 to 1000 nM. On to `CN[C@@H]1CCN(C(=O)N2CC[C@@H](Cn3cnc(-c4ccccc4OC)cc3=O)C3(CCCC3)C2)[C@H](c2cccc(F)c2)C1` [Example 102, 3-(((R)-7-((2S,4R)-2-(3-Fluorophenyl)-4-(methylamino)piperidine-1-carbonyl)-7-azaspiro[4.5]decan-10-yl)methyl)-6-(2-methoxyphenyl)pyrimidin-4(3H)-one], for which the IC50 is under 10 nM. `N[C@@H]1CCN(C(=O)N2CC[C@@H](Cn3ccc(-c4ccccc4F)cc3=O)C3(CCCC3)C2)[C@H](c2ccccc2)C1` [Example 61, 1-(((R)-7-((2S,4R)-4-Amino-2-phenylpiperidine-1-carbonyl)-7-azaspiro[4.5]decan-10-yl)methyl)-4-(2-fluorophenyl)pyridin-2(1H)-one]: the IC50 was under 10 nM.

Take `CN[C@@H]1CCN(C(=O)N2CC[C@@H](Cn3ccc(-c4ccccc4)cc3=O)C3(CCCC3)C2)[C@H](c2cc(F)ccc2F)C1` [Example 91, 1-(((R)-7-((2S,4R)-2-(2,5-Difluorophenyl)-4-(methylamino)piperidine-1-carbonyl)-7-azaspiro[4.5]decan-10-yl)methyl)-4-phenylpyridin-2(1H)-one]: the IC50 was under 10 nM. For `CN[C@@H]1CCN(C(=O)N2CC[C@@H](Cn3cnc4ccc(F)cc4c3=O)C3(CCCC3)C2)[C@H](c2ccc(F)cc2F)C1` [Example 191, 3-(((R)-7-((2S,4R)-2-(2,4-Difluorophenyl)-4-(methylamino)piperidine-1-carbonyl)-7-azaspiro[4.5]decan-10-yl)methyl)-6-fluoroquinazolin-4(3H)-one], the IC50 is under 10 nM. Take `N[C@@H]1CCN(C(=O)N2CC[C@@H](Cn3cnc(-c4ccccc4)cc3=O)C3(CCCC3)C2)[C@H](c2cc(F)ccc2F)C1` [Example 86, 3-(((R)-7-((2S,4R)-4-amino-2-(2,5-difluorophenyl)piperidine-1-carbonyl)-7-azaspiro[4.5]decan-10-yl)methyl)-6-phenylpyrimidin-4(3H)-one]: the half-inhibitory concentration (IC50) was under 10 nM. As for `CN[C@@H]1CCN(C(=O)N2CC[C@@H](Cn3cnc(-c4ccccc4OC)cc3=O)C3(CCCC3)C2)[C@H](c2cc(F)ccc2F)C1` [Example 99, 3-(((R)-7-((2S,4R)-2-(2,5-Difluorophenyl)-4-(methylamino)piperidine-1-carbonyl)-7-azaspiro[4.5]decan-10-yl)methyl)-6-(2-methoxyphenyl)pyrimidin-4(3H)-one], the figure is under 10 nM; as for `N[C@@H]1CCN(C(=O)N2CCC(Cn3cnc4ccc(F)cc4c3=O)C3(CCCC3)C2)[C@H](c2ccccc2)C1` (stereo partly drawn) [Example 27, 3-((7-((2S,4R)-4-Amino-2-phenylpiperidine-1-carbonyl)-7-azaspiro[4.5]decan-10-yl)methyl)-6-fluoroquinazolin-4(3H)-one], under 10 nM.

Take `CN[C@@H]1CCN(C(=O)N2CC[C@@H](Cn3cnc(-c4ccccc4C)cc3=O)C3(CCCC3)C2)[C@H](c2ccccc2)C1` [Example 84, 3-(((R)-7-((2S,4R)-4-(Methylamino)-2-phenylpiperidine-1-carbonyl)-7-azaspiro[4.5]decan-10-yl)methyl)-6-(o-tolyl)pyrimidin-4(3H)-one]: the IC50 was under 10 nM.

In the case of `CCN[C@@H]1CCN(C(=O)N2CC[C@@H](Cn3ccc(-c4ccccc4)cc3=O)C3(CCCC3)C2)[C@H](c2cc(F)ccc2F)C1` [Example 180, 1-(((R)-7-((2S,4R)-2-(2,5-Difluorophenyl)-4-(ethylamino)piperidine-1-carbonyl)-7-azaspiro[4.5]decan-10-yl)methyl)-4-phenylpyridin-2(1H)-one], the IC50 is under 10 nM. Turning to `N[C@@H]1CCN(C(=O)N2CC[C@@H](Cn3cnc(-c4ccccc4)cc3=O)C3(CCCC3)C2)[C@H](c2ccc(F)cc2F)C1` [Example 80, 3-(((R)-7-((2S,4R)-4-Amino-2-(2,4-difluorophenyl)piperidine-1-carbonyl)-7-azaspiro[4.5]decan-10-yl)methyl)-6-phenylpyrimidin-4(3H)-one], the concentration for half-maximal inhibition (IC50) was under 10 nM.

For the compound `CN[C@@H]1CCN(C(=O)N2CCC(Cn3cnc(-c4ccccc4)cc3=O)CC2)[C@H](c2cccc(F)c2)C1` [Example 74, 3-((1-((2S,4R)-2-(3-Fluorophenyl)-4-(methylamino)piperidine-1-carbonyl)piperidin-4-yl)methyl)-6-phenylpyrimidin-4(3H)-one], the IC50 is under 10 nM.

Consider `O=C(N1CC[C@@H](Cn2cnc(C3CC3)cc2=O)C2(CCCC2)C1)N1CC[C@@H](NCC(F)F)C[C@H]1c1cc(F)ccc1F` [Example 182, 6-Cyclopropyl-3-(((R)-7-((2S,4R)-4-((2,2-difluoroethyl)amino)-2-(2,5-difluorophenyl)piperidine-1-carbonyl)-7-azaspiro[4.5]decan-10-yl)methyl)pyrimidin-4(3H)-one], for which the IC50 was 10 to 100 nM.
